US10961235B2, “Crystalline form of masitinib” (Sandoz AG, priority 2017, dated 2021)
Where two headings read alike, the source gives them in different places.

What was measured:
[1] = cited from earlier work; for hygroscopicity (in words): as described in prior filings
[2] = cited from earlier work
[3] = GMS, 15 to 80% RH, form A comparison (same range as FIG. 6 of WO2017/016512A1); cited from earlier work
[4] = Storage stability of crystalline form M, polymorphic conversion checked by XRPD; type: physicochemical; conditions: for conversion to crystal form I by XRPD / storage stability: 8 weeks at 40° C./75% relative humidity
Method: X-Ray powder diffraction (XRPD) was performed with a PANalytical X'Pert PRO diffractometer equipped with a theta/theta coupled goniometer in transmission geometry, Cu—Kα1,2 radiation (wavelength 0.15419 nm) with a focusing mirror and a solid state PIXcel detector. Diffractograms were recorded at a tube voltage of 45 kV and a tube current of 40 mA, applying a stepsize of 0.013° 2-Theta with 40 s per step (255 channels) in the angular range of 2° to 40° 2-Theta at ambient conditions.

[5] = Gravimetric moisture sorption (GMS) of crystalline forms of masitinib mesylate; type: physicochemical
Method: Gravimetric moisture sorption/desorption (GMSD) isotherms were recorded with an SPSx-1μ moisture sorption analyzer (ProUmid, Ulm). The measurement cycle was started at ambient relative humidity (RH) of 25%. Relative humidity was then decreased to 5% RH in 5% steps, followed by a further decrease to 3% RH and to 0% RH. Afterwards RH was increased from 0% to 80% RH in a sorption cycle in 5% steps.
The time per step was set to a minimum of 2 hours and a maximum of 6 hours. If an equilibrium condition with a constant mass of ±0.01% within 1 hour was reached before the maximum time for all examined samples the sequential humidity step was applied before the maximum time of 6 hours. If no equilibrium was achieved the consecutive humidity step was applied after the maximum time of 6 hours. The temperature was 25±0.1° C.

Bulk density = type: physicochemical

Compound: CS(=O)(=O)O.Cc1ccc(NC(=O)c2ccc(CN3CCN(C)CC3)cc2)cc1Nc1nc(-c2cccnc2)cs1 [form H, salt of masitinib with methane sulfonic acid]
- hygroscopicity (in words) [1]: low hygroscopicity

Compound: masitinib mesylate [DRX2]
- temperatures at which problems with polymorphic conversion occur ([2]; response to the eESR / EP2886543 A1, DRX2 to DRX1 upon heating): above 25 °C

Compound: masitinib mesylate [crystal form I]
- water uptake in the range from 0% RH to 80% RH ([1]; 0% RH to 80% RH, described for DRX I): 4.3 w-%
- behaviour at 80% relative humidity ([1]; 80% RH, WO 2008/098949 A2): remains dry
- hygroscopicity (in words) ([1]; listed as DRX1): mildly hygroscopic
- weight increase between 0% RH and 80% RH ([1]; response to the eESR, EP 11170200.7): 4.3 weight-%
- temperatures at which thermodynamically stable ([2]; WO 2008/098949 A2): below 200 °C

Compound: masitinib mesylate [form A]
- Mass change (water uptake) in the range of from 15-80% RH [3]: 4.0-6.0 w-%
- hygroscopicity (in words) ([1]; listed as crystal form A): remarkably reduced compared to DRX1
- reversible loss of water below 10% RH ([1]; moisture sorption/desorption curves, FIG. 6 of WO2017/016512A1): about 5 weight-%

Compound: masitinib mesylate [form M]
- conversion to crystal form I by XRPD after storage ([4]; 8 weeks at 30° C./60% relative humidity): did not convert to or show detectable traces of crystal form I
- conversion to crystal form I by XRPD / storage stability ([4]; listed as crystal form M): storage stable
- conversion to crystal form I by XRPD / storage stability ([4]; listed as crystalline form M): did not convert to or show detectable traces of crystal form I
- time remaining stable as crystalline form M ([4]; 30° C. and 65% relative humidity): at least 8 weeks
- time remaining stable as crystalline form M ([4]; 40° C. and 75% relative humidity): at least 8 weeks
- polymorphic conversion on storage ([4]; at or below 40° C., relative humidity 15% RH to 75% RH): does not result in polymorphic conversion
- hygroscopicity compared with form A [5]: less hygroscopic than form A
- Mass change (water uptake / weight gain) in the range of from 15-80% RH ([5]; GMS, 15 to 80% RH, 25±0.1° C., form M, listed as Crystalline form M): 0.5-1.3 w-%
- dependence of water content on relative humidity ([5]; range of 15% RH and 80% RH): relatively constant water content
- bulk density (Bulk density): 0.14 g/mL
